Reference: US20090258079A1, “Biocompatible Block Copolymer, Use Thereof and Manufacturing Method Thereof” (priority 2005, published 2009)

What was measured:
Hartley male guinea pigs = settings: guinea pig, in vivo
Source text: Hartley male guinea pigs which were 10 weeks old and weighed 338 to 490 g were used. […] The physiological saline was also sterilized by filtration with a 0.22 μm membrane filter.

[1] = Solubilization of a drug by micelle formation with the block copolymer; type: physicochemical; settings: acetic acid buffer (0.1 M), pH 4.5
[2] = drug without block copolymer, stated as known property; cited from earlier work
Hartley guinea pigs = settings: guinea pig, in vivo, iv
Protocol: Hartley guinea pigs which were 7 weeks old and weighed 380 to 510 g were used. […] These substances were dissolved in physiological saline to a predetermined concentration, and the same amount of FCA (Freund's complete adjuvant) or FIA (Freund's incomplete adjuvant) was added to prepare a w/o emulsion. The FCA emulsion was first administered and then the FIA emulsion was administered under the skin of the back and foot pad of each guinea pig at a dose of 2.5 ml/kg on the second and third weeks for sensitization. […] These substances were dissolved in physiological saline to a predetermined concentration. The resulting solution was administered into the veins of the front feet or rear feet of the guinea pigs at a dose of 1.0 ml/kg on the fifth week for induction and observed for 4 hours. For 1 month after that, the weights of the guinea pigs were measured and the general conditions of the guinea pigs were observed once a week.

## Boc-(Leu-Leu-Ala-Lac)5-Leu-Phe-O-PEG4000-OH
Hartley male guinea pigs; 20 mg/kg
  toxicity by single dose intravenous administration: not observed
Hartley male guinea pigs; iv
  general conditions: Any special abnormality in the general conditions was not seen

## CC#CCC(C)[C@H](O)/C=C/[C@@H]1[C@H]2c3cccc(CCCC(=O)O)c3O[C@H]2C[C@H]1O (mixture of isomers) [beraprost sodium]
[1]
  dissolution in acetic acid buffer: precipitate was produced

## CN(Cc1cnc2nc(N)nc(N)c2n1)c1ccc(C(=O)N[C@@H](CCC(=O)O)C(=O)O)cc1 [methotrexate]
[2]
  solubility of the drug alone in water: almost insoluble in water

B1: egg albumin: positive control in the ASA reaction test (protein, UniProt P01012 2-386, looked up)
Ovalbumin: GSIGAASMEFCFDVFKELKVHHANENIFYCPIAIMSALAMVYLGAKDSTRTQINKVVRFDKLPGFGDSIEAQCGTSVNVHSSLRDILNQITKPNDVYSFSLASRLYAEERYPILPEYLQCVKELYRGGLEPINFQTAADQARELINSWVESQTNGIIRNVLQPSSVDSQTAMVLVNAIVFKGLWEKAFKDEDTQAMPFRVTEQESKPVQMMYQIGLFRVASMASEKMKILELPFASGTMSMLVLLPDEVSGLEQLESIINFEKLTEWTSSNVMEERKIKVYLPRMKMEEKYNLTSVLMAMGITDVFSSSANLSGISSAESLKISQAVHAAHAEINEAGREVVGSAEAGVDAASVSEEFRADHPFLFCIKHIATNAVLFFGRCVSP
Hartley guinea pigs
  anaphylaxis reaction after induction administration: anaphylaxis symptom was seen in all the guinea pigs
